Results reported in ChEMBL document CHEMBL1933053, “Efficient microwave-assisted synthesis, antibacterial activity and high fluorescence of 5 benzimidazolyl-2'-deoxyuridines” (2012).
In brackets after ≈: the same amount, converted by molar mass. Activity calls are given as the source filed them. The calls are words filed in the database; no cut-off is given here.

Legend:
[1] = tested on: Human immunodeficiency virus; test: Antiviral activity against HIV infected in human MT4 cells assessed as inhibition of virus-induced cytopathogenicity by MTT assay; assay type: functional, organism-based
[2] = tested on: Pseudomonas aeruginosa; test: Antibacterial activity against Pseudomonas aeruginosa ATCC 27853 after overnight incubation by twofold broth dilution technique; assay type: functional
[3] = tested on: Escherichia coli; test: Antibacterial activity against Escherichia coli ATCC 25922 after overnight incubation by twofold broth dilution technique; assay type: functional
[4] = tested on: Streptococcus pneumoniae; test: Antibacterial activity against Streptococcus pneumoniae expressing PenR gene after overnight incubation by twofold broth dilution technique in presence of 2.5% blood; assay type: functional
[5] = tested on: Haemophilus influenzae; test: Antibacterial activity against Haemophilus influenzae ATCC 31517 after overnight incubation by twofold broth dilution technique; assay type: functional
[6] = tested on: Streptococcus pneumoniae; test: Antibacterial activity against Streptococcus pneumoniae expressing PenR gene after overnight incubation by twofold broth dilution technique; assay type: functional
[7] = tested on: Enterococcus faecium; test: Antibacterial activity against Enterococcus faecium expressing VanA gene after overnight incubation by twofold broth dilution technique; assay type: functional
[8] = tested on: Streptococcus pneumoniae; test: Antibacterial activity against Streptococcus pneumoniae ATCC 49619 after overnight incubation by twofold broth dilution technique; assay type: functional
[9] = tested on: Enterococcus faecalis; test: Antibacterial activity against Enterococcus faecalis ATCC 29212 expressing VanS gene after overnight incubation by twofold broth dilution technique; assay type: functional
[10] = tested on: Staphylococcus aureus; test: Antibacterial activity against Staphylococcus aureus after overnight incubation by twofold broth dilution technique; assay type: functional
[11] = tested on: Staphylococcus aureus; test: Antibacterial activity against Staphylococcus aureus ATCC 25923 after overnight incubation by twofold broth dilution technique in presence of 50% human serum; assay type: functional
[12] = tested on: Staphylococcus aureus; test: Antibacterial activity against Staphylococcus aureus ATCC 25923 after overnight incubation by twofold broth dilution technique; assay type: functional
[13] = tested on: Staphylococcus aureus; test: Antibacterial activity against Staphylococcus aureus ATCC 25923 after overnight incubation by twofold broth dilution technique in presence of 10% human serum; assay type: functional
[14] = tested on: Staphylococcus aureus; test: Antibacterial activity against Staphylococcus aureus ATCC 13709 after overnight incubation by twofold broth dilution technique; assay type: functional
[15] = tested on: Staphylococcus aureus; test: Antibacterial activity against methicillin-resistant Staphylococcus aureus after overnight incubation by twofold broth dilution technique; assay type: functional

Structure (SMILES)	inhibition [1]	MIC [2]	MIC [3]	MIC [4]	MIC [5]	MIC [6]	MIC [7]	MIC [8]	MIC [9]	MIC [10]	MIC [11]	MIC [12]	MIC [13]	MIC [14]	MIC [15]
O=c1[nH]c(=O)n([C@H]2C[C@H](O)[C@@H](CO)O2)cc1-c1nc2ccc(C(F)(F)F)cc2[nH]1	inactive	> 64 µg/mL	> 64 µg/mL	64 µg/mL	4 µg/mL (≈ 9.7 µM)	32 µg/mL (≈ 77.6 µM)	64 µg/mL (≈ 155 µM)	64 µg/mL (≈ 155 µM)	> 64 µg/mL	> 64 µg/mL	> 64 µg/mL	> 64 µg/mL	> 64 µg/mL	> 64 µg/mL	
O=C(O)c1cn(C2CC2)c2cc(N3CCNCC3)c(F)cc2c1=O [CIPROFLOXACIN]			≤ 0.03 µg/mL		≤ 0.03 µg/mL		16 µg/mL (≈ 48.3 µM)	1 µg/mL (≈ 3.02 µM)	0.5 µg/mL (≈ 1.51 µM)	0.12 µg/mL (≈ 0.362 µM)	0.5 µg/mL	0.25 µg/mL (≈ 0.754 µM)	0.25 µg/mL	0.12 µg/mL (≈ 0.362 µM)	8 µg/mL (≈ 24.1 µM)
O=c1[nH]c(=O)n([C@H]2C[C@H](O)[C@@H](CO)O2)cc1-c1nc2cc3ccccc3cc2[nH]1	inactive	> 64 µg/mL	> 64 µg/mL	> 64 µg/mL	> 64 µg/mL	> 64 µg/mL	> 64 µg/mL	> 64 µg/mL	> 64 µg/mL	> 64 µg/mL	> 64 µg/mL	> 64 µg/mL	> 64 µg/mL	> 64 µg/mL	
O=c1[nH]c(=O)n([C@H]2C[C@H](O)[C@@H](CO)O2)cc1-c1nc2ccccc2[nH]1	inactive	> 64 µg/mL	> 64 µg/mL	> 64 µg/mL	> 64 µg/mL	> 64 µg/mL	> 64 µg/mL	> 64 µg/mL	> 64 µg/mL	> 64 µg/mL	> 64 µg/mL	> 64 µg/mL	> 64 µg/mL	> 64 µg/mL	
O=c1[nH]c(=O)n([C@H]2C[C@H](O)[C@@H](CO)O2)cc1-c1nc2cc(C(F)(F)F)cc(Cl)c2[nH]1	inactive	> 64 µg/mL	> 64 µg/mL	16 µg/mL	> 64 µg/mL	4 µg/mL (≈ 8.95 µM)	1 µg/mL (≈ 2.24 µM)	4 µg/mL (≈ 8.95 µM)	2 µg/mL (≈ 4.48 µM)	2 µg/mL (≈ 4.48 µM)	> 64 µg/mL	2 µg/mL (≈ 4.48 µM)	> 64 µg/mL	2 µg/mL (≈ 4.48 µM)	2 µg/mL (≈ 4.48 µM)
O=c1[nH]c(=O)n([C@H]2C[C@H](O)[C@@H](CO)O2)cc1-c1nc2ccc(F)cc2[nH]1	inactive	> 64 µg/mL	> 64 µg/mL	> 64 µg/mL	> 64 µg/mL	> 64 µg/mL	> 64 µg/mL	> 64 µg/mL	> 64 µg/mL	> 64 µg/mL	> 64 µg/mL	> 64 µg/mL	> 64 µg/mL	> 64 µg/mL	
CC(=O)NC[C@H]1CN(c2ccc(N3CCOCC3)c(F)c2)C(=O)O1 [LINEZOLID]		> 32 µg/mL	> 32 µg/mL	0.25 µg/mL	16 µg/mL (≈ 47.4 µM)		0.5 µg/mL (≈ 1.48 µM)			1 µg/mL (≈ 2.96 µM)		1 µg/mL (≈ 2.96 µM)	1 µg/mL	1 µg/mL (≈ 2.96 µM)	1 µg/mL (≈ 2.96 µM)
O=c1[nH]c(=O)n([C@H]2C[C@H](O)[C@@H](CO)O2)cc1-c1nc2c3ccccc3c3ccccc3c2[nH]1	inactive	> 64 µg/mL	> 64 µg/mL	> 64 µg/mL	> 64 µg/mL	> 64 µg/mL	> 64 µg/mL	> 64 µg/mL	> 64 µg/mL	> 64 µg/mL	> 64 µg/mL	> 64 µg/mL	> 64 µg/mL	> 64 µg/mL	
COc1ccc2nc(-c3cn([C@H]4C[C@H](O)[C@@H](CO)O4)c(=O)[nH]c3=O)[nH]c2c1	inactive	> 64 µg/mL	> 64 µg/mL	> 64 µg/mL	> 64 µg/mL	> 64 µg/mL	> 64 µg/mL	> 64 µg/mL	> 64 µg/mL	> 64 µg/mL	> 64 µg/mL	> 64 µg/mL	> 64 µg/mL	> 64 µg/mL	
Cc1ccc2nc(-c3cn([C@H]4C[C@H](O)[C@@H](CO)O4)c(=O)[nH]c3=O)[nH]c2c1	inactive	> 64 µg/mL	> 64 µg/mL	> 64 µg/mL	> 64 µg/mL	> 64 µg/mL	> 64 µg/mL	> 64 µg/mL	> 64 µg/mL	> 64 µg/mL	> 64 µg/mL	> 64 µg/mL	> 64 µg/mL	> 64 µg/mL	
